In brackets after ≈: the same amount, converted by molar mass.
Tested on: Mycobacterium tuberculosis (H37Rv strain)
Experiment: not given
Settings: cited from earlier work

| SMILES | bactericidal action |
| --- | --- |
| CCC1Cn2cc([N+](=O)[O-])nc2O1 (stereo not shown) [CGI-17341] | has a bactericidal action |

Tested on: Mycobacterium tuberculosis (M. tuberculosis H37Rv)
Experiment: Antimicrobial assay (agar dilution method), minimal inhibitory concentration
Type: cell-based
Settings: 336 h, 7H11 agar medium, approximately 10^6 CFU/ml, 5 μl inoculated, 37° C. for 14 days

| SMILES | MIC [µg/mL] |
| --- | --- |
| C[C@]1(CN2CCN(c3ccc(OC(F)(F)F)cc3)CC2)Cn2cc([N+](=O)[O-])nc2O1 [Example 397, (S)-2-[4-(4-trifluoromethoxyphenyl)-piperazin-1-ylmethyl]-2-methyl-6-nitro-2,3-dihydroimidazo[2,1-b]oxazole] | 0.024 (≈ 0.0562 µM) |

Tested on: M. fortuitum
Experiment: not given
Settings: used at 250 μg/ml or less; cited from earlier work

| SMILES | activity |
| --- | --- |
| CCC1Cn2cc([N+](=O)[O-])nc2O1 (stereo not shown) [CGI-17341] | does not have the activity |

Tested on: M. intracellulare
Experiment: not given
Settings: used at 250 μg/ml or less; cited from earlier work

| SMILES | activity |
| --- | --- |
| CCC1Cn2cc([N+](=O)[O-])nc2O1 (stereo not shown) [CGI-17341] | does not have the activity |

Tested on: M. avium
Experiment: not given
Settings: used at 250 μg/ml or less; cited from earlier work

| SMILES | activity |
| --- | --- |
| CCC1Cn2cc([N+](=O)[O-])nc2O1 (stereo not shown) [CGI-17341] | does not have the activity |

Tested on: not given
Experiment: not given
Settings: not given

| SMILES | melting point |
| --- | --- |
| CSc1ccc(COC(=O)N2CCN(CC3(C)Cn4cc([N+](=O)[O-])nc4O3)CC2)cc1 (stereo not shown) | 118 to 120 °C |
| CN(CCOc1ccc(C(F)(F)F)cc1)C[C@@]1(C)Cn2cc([N+](=O)[O-])nc2O1 | 123 to 126 °C |
| C[C@]1(CN2CCN(c3cc(-c4ccccc4)nc(-c4ccccc4)n3)CC2)Cn2cc([N+](=O)[O-])nc2O1 | 202.5 to 205.4 °C |
| CC(C)(C)OC(=O)N1CCN(CCC2(C)Cn3cc([N+](=O)[O-])nc3O2)CC1 (stereo not shown) | 190 to 191 °C (dec.) |
| CC1(Cn2nc(-c3ccc(Cl)cc3)oc2=O)Cn2cc([N+](=O)[O-])nc2O1 (stereo not shown) | 221 to 222 °C |
| CNC(C1CCN(c2ccc(C#N)cc2)CC1)[C@]1(C)Cn2cc([N+](=O)[O-])nc2O1 (stereo partly shown) | 149 to 152 °C |
| C[C@]1(CN2CCN(C(=O)N3CC=C(c4ccc(Cl)cc4)CC3)CC2)Cn2cc([N+](=O)[O-])nc2O1 | 161 to 162 °C |
| CC1(CN2CCN(C(=O)OCc3ccccc3)CC2)Cn2cc([N+](=O)[O-])nc2O1.Cl (stereo not shown) | 130.5 to 132.1 °C |
| Cn1c(=O)n(CC2(C)Cn3cc([N+](=O)[O-])nc3O2)c2ccccc21 (stereo not shown) | 203.2 to 204.4 °C |
| CN1CCC2(CC1)Cn1cc([N+](=O)[O-])nc1O2 | 237 to 239 °C (dec.) |
| CC1(Cn2c(=O)n(-c3ccc(F)cc3)c3ccccc32)Cn2cc([N+](=O)[O-])nc2O1 (stereo not shown) | 254.1 to 254.7 °C |
| CC1(CN2CCN(C(=O)Nc3ccc(Cl)c(C(F)(F)F)c3)CC2)Cn2cc([N+](=O)[O-])nc2O1 (stereo not shown) | 222 to 224 °C |
| CN(CCOc1ccc(Cl)cc1)C[C@@]1(C)Cn2cc([N+](=O)[O-])nc2O1 | 130.5 to 132 °C |
| C[C@]1(COc2cccc(N3CCN(C(=O)OCc4ccc(OC(F)(F)F)cc4)CC3)c2)Cn2cc([N+](=O)[O-])nc2O1 | 136.5 to 138 °C |
| C[C@]1(CN2CCC(N3CCN(c4ccc(Cl)cc4)CC3)CC2)Cn2cc([N+](=O)[O-])nc2O1 | 226 to 228 °C |
| CC(C)(C)OC(=O)N1CCC(n2c(=O)n(CC3(C)Cn4cc([N+](=O)[O-])nc4O3)c3ccccc32)CC1 (stereo not shown) | 218 to 219.1 °C |
| CCn1nnnc1CCC1(C)Cn2cc([N+](=O)[O-])nc2O1 (stereo not shown) | 135 to 137 °C |
| CN(Cc1ccc(Cl)cc1)C[C@@]1(C)Cn2cc([N+](=O)[O-])nc2O1 | 129 to 129.5 °C |
| CC(C)(C)OC(=O)N1CCC(N2CCN(C[C@@]3(C)Cn4cc([N+](=O)[O-])nc4O3)CC2)CC1 | 181 to 182 °C |
| CN(C[C@@]1(C)Cn2cc([N+](=O)[O-])nc2O1)c1ccccc1 | 147 to 148 °C |
| C[C@]1(CN2CCN(N=Cc3cc4cc(Cl)ccc4o3)CC2)Cn2cc([N+](=O)[O-])nc2O1 | 213.8 to 215.7 °C |
| C[C@]1(COc2ccc(N3CCSCC3)cc2)Cn2cc([N+](=O)[O-])nc2O1 | 227.5 to 229 °C |
| O=C(Nc1ccc(N2CCOCC2)c(F)c1)N1CCC2(CC1)Cn1cc([N+](=O)[O-])nc1O2 | 240 to 245 °C (dec.) |
| C[C@]1(CN(CCOc2ccc(OC(F)(F)F)cc2)Cc2ccccc2)Cn2cc([N+](=O)[O-])nc2O1 | 96.5 to 97 °C |

Continued, values first:

| melting point | SMILES |
| --- | --- |
| 112.5 to 115 °C | CN(CCOc1ccc(OC(F)(F)F)cc1)C[C@@]1(C)Cn2cc([N+](=O)[O-])nc2O1 |
| 216 to 217 °C | CC1(CN2CCN(C(=O)Nc3ccc(C(F)(F)F)cc3)CC2)Cn2cc([N+](=O)[O-])nc2O1 (stereo not shown) |
| 189 to 191 °C (dec.) | COc1ccc(NC(=S)N2CCN(CC3(C)Cn4cc([N+](=O)[O-])nc4O3)CC2)cc1 (stereo not shown) |
| 150 to 152.5 °C | C[C@]1(CN2CCN(C(=O)Nc3ccc(C(F)(F)F)cc3)CC2)Cn2cc([N+](=O)[O-])nc2O1 |
| 201 to 202.3 °C (dec.) | C[C@]1(CN2CCN(N=Cc3ccc(C(F)(F)F)cc3)CC2)Cn2cc([N+](=O)[O-])nc2O1 [Example 504] |
| 111 to 112.5 °C | C[C@]1(CN2CCC(Cc3ccc(OC(F)(F)F)cc3)CC2)Cn2cc([N+](=O)[O-])nc2O1 |
| 213 to 214 °C | Cc1ccc(CC(=O)N2CCN(CC3(C)Cn4cc([N+](=O)[O-])nc4O3)CC2)cc1 (stereo not shown) |
| 145 to 146 °C | C[C@]1(CN2CCN(C(=O)CCCc3ccc(C(F)(F)F)cc3)CC2)Cn2cc([N+](=O)[O-])nc2O1 |
| 167 to 169 °C | C[C@@]1(CN2CCN(C(=O)OCc3ccc(F)cc3)CC2)Cn2cc([N+](=O)[O-])nc2O1 |
| 130 to 133 °C | CC1(CCCN2CCN(C(=O)OCc3ccc(C(F)(F)F)cc3)CC2)Cn2cc([N+](=O)[O-])nc2O1 (stereo not shown) |
| 126.8 to 127.9 °C | CC1(COc2ccc(OC(F)(F)F)cc2)Cn2cc([N+](=O)[O-])nc2O1 (stereo not shown) |
| 84.6 to 86.8 °C | C[C@]1(CN2CCC(OCCc3ccc(C(F)(F)F)cc3)CC2)Cn2cc([N+](=O)[O-])nc2O1 |
| 100.4 to 102.4 °C | CN(C(=O)N1CCN(C[C@@]2(C)Cn3cc([N+](=O)[O-])nc3O2)CC1)c1ccc(C(F)(F)F)cc1 |
| 123 to 124 °C | CN(Cc1ccc(OC(F)(F)F)cc1)C(=O)OC[C@@]1(C)Cn2cc([N+](=O)[O-])nc2O1 |

From patent US7262212B2, “2,3-dihydro-6-nitroimidazo[2,1-b]oxazoles” (Otsuka Pharmaceutical Co., Ltd., priority 2002, dated 2007)
